Earlier results on two compounds are cited in patent US20070042999A1, “Phosphate derivatives of pharmaceutical products” (priority 2003, published 2007).

The conditions of data set [1]: administered orally.
For data set [2] the following is noted: in vivo.

On to `C[C@]12CC[C@H]3[C@@H](CCC4=CC(=O)CC[C@@]43C)[C@@H]1CC[C@@H]2O` [testosterone], for which the “fraction of the administered dose available in the active form” value in data set [1] was “less than one sixth”.
Take `N[C@@H](Cc1cc(I)c(Oc2cc(I)c(O)c(I)c2)c(I)c1)C(=O)O` [Thyroxine, thyroxine]: the bioavailability in data set [2] is recorded as 50-80%.
